Data on three compounds can be found in patent publication US20250075248A1, “SYSTEMS, METHODS, AND DEVICES FOR ANTIMICROBIAL SUSCEPTIBILITY TESTING” (Deepull Diagnostics S.L., priority 2022, published 2025).

Holding throughout (assay type): cell-based
For assay [1], the system named is Klebsiella pneumoniae ATCC13883. Briefly: Microscopy-based AST (MIC) from spiked blood tube sample after lysis, enrichment and immunomagnetic separation. The procedure: First, Streptavidin coated beads were washed and immobilized. […] The typical binding capacity per mg (100 μL) of the magnetic beads used is approximately 20 μg of biotinylated antibody. After the coating, some washes with a phosphate saline buffer containing 0.01% of BSA (w/v) (adjusted pH 7.4) were performed. Finally, beads were resuspended to the desired concentration for the application. The antibody used was a biotin Klebsiella Polyclonal Antibody (PA1-73177, Invitrogen) and the magnetic beads used were Dynabeads MyOne Streptavidin T1 (65601, Thermofisher Scientific).
Blood samples were prepared from a single large blood pool from donors collected in 10 mL EDTA blood tubes which was spiked with the appropriate amount of bacteria (Klebsiella pneumoniae ATCC13883) depending on the target inoculum (around 100 CFU/10 mL). After the pool was spiked, 10 mL were transferred to a previously labelled 15 mL tube containing a lysing agent (700 μL of Isolator BC0507C, Oxoid) and an immiscible fluorocarbon oil (20 μL of Fluorinert™ FC-40 F9755, Sigma-Aldrich). To lyse and concentrate, samples were incubated for a short period of time (30 seconds) under rotatory movement at low speed (10 rpm) and centrifugated at 12.000 g force for 5 minutes with a fixed angle rotor. The supernatant of each sample was discarded until 500 μL used to prepare the matrix for the enrichment step. […]
For the immunomagnetic separation of the bacteria from the blood, 100 μL of antibody coated beads were added to each sample tube. […] These samples were also observed under an inverted fluorescence microscope in order to know the bacteria present in the sample and calculate the amount needed to perform the AST test, which was the next and last step in this end-to-end assay. 5 μL of each sample were transferred to a 384-well plate with a flat polystyrene film bottom and incubated with fluorescence dyes (SYBR Green and Propidium Iodide) during 10 min at room temperature in the dark. […]

Assay [2] shares this test system. Briefly: Broth microdilution method MIC. To be noted: K. pneumoniae ATCC13883, read-out: MIC according to broth microdilution method.
Assay [3] concerns Klebsiella pneumoniae (IHMA1977064). Briefly: Microscopy-based AST (MIC) from liquid culture. The procedure:
The minimal inhibitory concentration was determined using embodiments disclosed herein for one strain of Gram-negative bacteria Klebsiella pneumoniae (IHMA1977064) with an MIC of 8 mg/L to meropenem according to the broth microdilution method. Bacteria was grown in liquid culture until an exponential phase in culture media. The cultures were diluted in culture media (Mueller Hinton cation adjusted broth) and was incubated at a final concentration of 2×10^4 CFU/mL during 5 hours at 37° C. at different concentrations of meropenem in a final volume of 10 μL. Meropenem concentrations tested were 32, 16, 8, 4, 2 and 1 mg/L […]. Three replicates were performed for each antibiotic concentration.
(§1) Samples were analyzed at time 0 of incubation and after 5 hours incubation (with and without antibiotic). 5 μL of each sample were transferred to a 384-well plate with flat polystyrene film bottom and incubated with fluorescence dyes (SYBR Green and Propidium Iodide) during 10 minutes at room temperature in the dark. The 384-well plate was centrifuged during 1 minute at 3000 g in a swinging-bucket movement and observed in an inverted fluorescence microscope. For each sample, a composite image covering the bottom of each well was constructed. Images were analyzed with a custom software to count bacteria, detect filamentous bacteria, counts red bacteria, and record the brightness of bacteria. These images are illustrated in FIG. 24A.
This graph is illustrated in FIG. 24B.

The test system is the same in assay [4]. Briefly: Broth microdilution method MIC. The note with it: K. pneumoniae IHMA1977064, read-out: MIC according to broth microdilution method.
Assay [5] relates to Klebsiella pneumoniae ATCC13883. Briefly: Microscopy-based AST (MIC) from spiked blood culture bottle after immunomagnetic separation. The procedure: First, Streptavidin coated beads were washed and immobilized. The washing buffer and the immobilization process may be different depending on the application. […] The typical binding capacity per mg (100 μL) of magnetic beads used is approximately 20 μg of biotinylated antibody. After the coating, some washes were performed with a phosphate saline buffer containing 0.01% of BSA (w/v) (adjusted pH 7.4) and then beads were finally resuspended to the desired concentration for the application. The antibody used was a biotin Klebsiella Polyclonal Antibody (PA1-73177, Invitrogen) and the magnetic beads used were Dynabeads MyOne Streptavidin T1 (65601, Thermofisher Scientific).
Blood samples were prepared from a previously mixed single large blood pool which was spiked with the appropriate amount of bacteria (Klebsiella pneumoniae ATCC13883) depending on the target inoculum (around 100 CFU). After the pool was spiked, 10 mL were transferred to a previously labelled blood culture system (442023, BD BACTEC™ Plus Aerobic/F) and mixed with an agitation platform (5 minutes at 150 rpm). […]
The immunomagnetic separation of the bacteria was performed using a 15 mL tube containing 5 mL of a matrix extracted from a blood culture bottle and 100 μL of beads coated with anti-K. pneumoniae antibodies. […] The samples were also observed under an inverted fluorescence microscope in order to determine the number of bacteria present in the sample and calculate the adjustment needed to perform the AST test. 5 μL of each sample were transferred to a 384-well plate with flat polystyrene film bottom and incubated with fluorescence dyes (SYBR Green and Propidium Iodide) during 10 minutes at room temperature in the dark. The 384-well plate was centrifuged during 1 minute at 3000 g in a swinging-bucket centrifuge and observed in an inverted fluorescence microscope. […] Images were analyzed with a custom software to determine the number of bacteria. […]
Samples were analyzed at time 0 of incubation and after 5 h incubation (with and without antibiotic). […]

In assay [6] the test system is Klebsiella pneumoniae (ATCC13883). Briefly: Microscopy-based AST (MIC) from liquid culture. As for the experimental part:
Bacteria was grown in a liquid culture until an exponential phase in culture media. The cultures were diluted in culture media (Mueller Hinton cation adjusted broth) and was incubated at a final concentration of 2×10^4 CFU/mL during 5 hours at 37° C. at different concentrations of […] in a final volume of 10 μL. Gentamicin concentrations tested were 4, 2, 1, 0.5, 0.25 and 0.125 mg/L. Three replicates were performed for each antibiotic concentration.
as §1, with “Samples” for “5 μL of each sample”, “were” for “were transferred to a 384-well plate with flat polystyrene film bottom and”, “dark. After dye incubation, a sample of 1 μL was diluted with 4 μL of buffer (NaCl 0.9%) and transferred to a 384-well plate with flat polystyrene film bottom.” for “dark.”, “23A” for “24A.”
This graph is illustrated in FIG. 23B.

Values after ≈ are worked out from the molar mass of the structure shown.

As for `O=C(O)c1cn(C2CC2)c2cc(N3CCNCC3)c(F)cc2c1=O` [ciprofloxacin, Ciprofloxacin], the MIC in assay [1] (Klebsiella pneumoniae, ATCC13883, 5 h) worked out at 0.015 µg/mL (≈ 0.0453 µM); in assay [2], 0.03 µg/mL (≈ 0.0905 µM). The “bacterial growth after 5 hours incubation” value in assay [1] (at 0.008 and 0.004 mg/L) was “growth”; in assay [1] (at a concentration ≥0.015 mg/L), “did not grow”.
Take `C[C@@H](O)[C@H]1C(=O)N2C(C(=O)O)=C(S[C@@H]3CN[C@H](C(=O)N(C)C)C3)[C@H](C)[C@H]12` [meropenem, Meropenem]: the MIC in assay [3] (Klebsiella pneumoniae, liquid culture, 2×10^4 CFU/mL, 5 hours at 37° C., image analysis) stood at 4 µg/mL (≈ 10.4 µM); in assay [4], 8 µg/mL (≈ 20.9 µM). The “bacterial growth after 5 hours incubation” value is reported as “bacterial growth” in assay [3] (at 2 and 1 mg/L); “did not grow” in assay [3] (at a concentration ≥4 mg/L).
Consider Gentamicin, for which the “bacterial growth after 5 hours incubation” value is “growth” in assay [5] (at 0.125 and 0.06 mg/L); “did not grow” in assay [5] (at a concentration ≥0.25); “bacterial growth” in assay [6] (at 0.125 mg/L); “did not grow” in assay [6] (at a concentration ≥0.25 mg/L). Moreover, the MIC in assay [5] (blood culture bottle sample, 2×10^4 CFU/mL, 5 hours at 37° C., image analysis) turned out to be 0.25 µg/mL; in assay [6] (liquid culture, 2×10^4 CFU/mL, 5 hours at 37° C., image analysis), 0.25 µg/mL.
